This is an account of results in patent US20100137313A1 (ASTRAZENECA AB, priority 2008, published 2010).

S. pneumoniae Topoisomerase IV ATPase (ParE), sequence (Q59961 whole entry): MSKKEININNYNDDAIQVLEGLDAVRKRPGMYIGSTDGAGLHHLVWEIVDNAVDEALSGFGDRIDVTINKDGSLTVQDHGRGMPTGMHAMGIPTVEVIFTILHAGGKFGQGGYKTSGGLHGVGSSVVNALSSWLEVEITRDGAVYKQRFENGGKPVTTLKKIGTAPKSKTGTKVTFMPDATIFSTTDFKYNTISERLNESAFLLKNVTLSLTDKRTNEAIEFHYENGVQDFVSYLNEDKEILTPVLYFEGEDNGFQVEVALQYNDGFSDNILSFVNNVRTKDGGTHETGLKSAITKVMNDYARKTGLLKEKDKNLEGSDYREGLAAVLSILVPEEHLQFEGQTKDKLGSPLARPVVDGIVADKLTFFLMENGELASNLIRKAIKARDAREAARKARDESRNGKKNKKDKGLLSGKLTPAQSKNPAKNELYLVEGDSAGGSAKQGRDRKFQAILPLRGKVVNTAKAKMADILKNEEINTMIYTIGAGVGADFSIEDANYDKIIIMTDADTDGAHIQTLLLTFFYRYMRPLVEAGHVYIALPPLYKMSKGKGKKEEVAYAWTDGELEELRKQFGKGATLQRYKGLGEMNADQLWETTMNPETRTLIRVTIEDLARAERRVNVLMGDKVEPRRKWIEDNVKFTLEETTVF

For this assay, the target named is S. pneumoniae Topoisomerase IV ATPase (ParE) (Streptococcus pneumoniae serotype 4, UniProt Q59961). Kind of assay: S. pneumoniae Topoisomerase IV ATPase inhibition. It counts as biochemical. To be noted: values marked * are an average of two or more data points, read-out: % Inh (13 μM) of S. pneumoniae Topoisomerase IV ATPase. The essentials:
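Phosphate release by ParE ATPase from S. pneumoniae read colorimetrically (malachite green, 650 nm), enzyme 1.25 nM, ATP 160 μM, salmon sperm DNA present, buffer 20 mM Tris pH 8.0 with 8 mM MgCl2. IC50 over 10 compound concentrations, EDTA (20 μM) and DMSO controls defining inhibition range.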
For `O=C(O)c1cncc(-c2cnc(Nc3ccc(F)c(Cl)c3)nc2NCc2ccncc2)c1` [Example 224, 5-{2-(3-Chloro-4-fluoro-phenylamino)-4-[(pyridin-4-ylmethyl)-amino]-pyrimidin-5-yl}-nicotinic acid], the inhibition at 13 µM came out at 78.5%.
For the molecule `O=C(O)c1cncc(-c2cnc(Nc3ccc(F)c(Cl)c3)nc2NCCn2cccn2)c1` [Example 260, 5-(2-[(3-chloro-4-fluorophenyl)amino]-4-{[2-(1H-pyrazol-1-yl)ethyl]amino}pyrimidin-5-yl)pyridine-3-carboxylic acid], the inhibition at 13 µM came out at 103%.
Consider `COc1cc(Nc2ncc(-c3cnc(OC)c(C(=O)NS(=O)(=O)CCCN4CCOCC4)c3)c(-n3ccc(C(F)(F)F)n3)n2)cc(OC)c1` [Example 820, 5-{2-[(3,5-dimethoxyphenyl)amino]-4-[3-(trifluoromethyl)-1H-pyrazol-1-yl]pyrimidin-5-yl}-2-methoxy-N-{[3-(morpholin-4-yl)propyl]sulfonyl}pyridine-3-carboxamide], for which the inhibition at 13 µM was 100%.
On to `CONC(=O)c1cncc(-c2cnc(Nc3ccc(F)c(Cl)c3)nc2-n2ccc(NC(C)=O)n2)c1` [Example 549, 5-{4-[3-(acetylamino)-1H-pyrazol-1-yl]-2-[(3-chloro-4-fluorophenyl)amino]-pyrimidin-5-yl}-N-methoxypyridine-3-carboxamide], for which the inhibition at 13 µM stood at 94%.
Regarding `O=C(O)c1cncc(-c2cnc(Nc3ccc(F)c(Cl)c3)nc2NCCc2cccnc2)c1` [Example 229, 5-[2-(3-Chloro-4-fluoro-phenylamino)-4-(2-pyridin-3-yl-ethylamino)-pyrimidin-5-yl]-nicotinic acid], the inhibition at 13 µM came to 85%.
For the molecule `CCOC(=O)c1sc(-c2cnc(Nc3ccc(F)c(Cl)c3)nc2NCCCOC)nc1-c1ccn(C)n1` [Example 508, ethyl 2-{2-[(3-chloro-4-fluorophenyl)amino]-4-[(3-methoxypropyl)amino]pyrimidin-5-yl}-4-(1-methyl-1H-pyrazol-3-yl)-1,3-thiazole-5-carboxylate], the inhibition at 13 µM is 0%.
Turning to `CCOC(=O)/C=C/c1cccc(-c2cnc(Nc3ccc(F)c(Cl)c3)nc2NCCCOC)c1` [Example 167, (E)-ethyl 3-(3-(2-(3-chloro-4-fluorophenylamino)-4-(3-methoxypropylamino)pyrimidin-5-yl)phenyl)acrylate], the inhibition at 13 µM was found to be 31.1%.
Take `CS(=O)(=O)NC(=O)c1cncc(-c2cnc(Nc3ccc(F)c(Cl)c3)nc2-n2ccc(C(F)(F)F)n2)c1` [Example 874, 5-(2-(3-chloro-4-fluorophenylamino)-4-(3-(trifluoromethyl)-1H-pyrazol-1-yl)pyrimidin-5-yl)-N-(methylsulfonyl)nicotinamide]: the inhibition at 13 µM was found to be 100%.
As for `CCOC(=O)c1cncc(-c2cnc(Nc3ccc(F)c(Cl)c3)nc2NCCCOC)c1` [Example 143, ethyl 5-(2-(3-chloro-4-fluorophenylamino)-4-(3-methoxypropylamino)pyrimidin-5-yl)nicotinate], the inhibition at 13 µM was determined as 88.6%.
`Cc1cc(C(F)(F)F)nn1-c1nc(Nc2cccc(S(C)(=O)=O)c2)ncc1-c1cncc(C(=O)O)c1` [Example 644, 5-(2-{[3-(methylsulfonyl)phenyl]amino}-4-[5-methyl-3-(trifluoromethyl)-1H-pyrazol-1-yl]pyrimidin-5-yl)pyridine-3-carboxylic acid]: the inhibition at 13 µM is 84%.
Consider `COc1cc(Cl)cc(Nc2ncc(-c3cncc(C(=O)O)c3)c(-n3ccc(C(F)(F)F)n3)n2)c1` [Example 774, 5-{2-[(3-chloro-5-methoxyphenyl)-amino]-4-[3-(trifluoromethyl)-1H-pyrazol-1-yl]pyrimidin-5-yl}pyridine-3-carboxylic acid], for which the inhibition at 13 µM worked out at 100%.
For `COc1cc(Cl)c(C)cc1Nc1ncc(-c2ccc(C(=O)O)s2)c(NCCCN(C)C)n1` [Example 342, 5-(2-(4-chloro-2-methoxy-5-methylphenylamino)-4-(3-(dimethylamino)propylamino)pyrimidin-5-yl) thiophene-2-carboxylic acid], the inhibition at 13 µM stood at 77%.
With `CCOC(=O)c1cncc(-c2cnc(Nc3ccc(F)c(Cl)c3)nc2NCCCN2CCOCC2)c1` [Example 106, 5-[2-(3-Chloro-4-fluoro-phenylamino)-4-(3-morpholin-4-yl-propylamino)-pyrimidin-5-yl]-nicotinic acid ethyl ester], the inhibition at 13 µM is 40.8%.
As for `Cc1cc(C(F)(F)F)nn1-c1nc(Nc2ccc(F)c(Cl)c2)ncc1-c1c[nH]c(=O)c(C(=O)O)c1` [Example 1094, 5-(2-(3-Chloro-4-fluorophenylamino)-4-(5-methyl-3-(trifluoromethyl)-1H-pyrazol-1-yl)pyrimidin-5-yl)-2-oxo-1,2-dihydropyridine-3-carboxylic acid], the figure is 99%.
The figure for `Cc1cc(C(F)(F)F)nn1-c1nc(Nc2ccc(F)c(Cl)c2)ncc1-c1ccc(C(=O)O)s1` [Example 1114, 5-[2-[(3-chloro-4-fluorophenyl)amino]-4-[5-methyl-3-(trifluoromethyl)pyrazol-1-yl]pyrimidin-5-yl]thiophene-2-carboxylic acid] is 100%.
On to `NC(=O)c1cc(-c2cnc(Nc3ccc(F)c(Cl)c3)nc2-n2ccc(C(F)(F)F)n2)ccn1` [Example 496, 4-{2-[(3-chloro-4-fluorophenyl)amino]-4-[3-(trifluoromethyl)-1H-pyrazol-1-yl]pyrimidin-5-yl}pyridine-2-carboxamide], for which the inhibition at 13 µM turned out to be 100%.
In the case of `CCOC(=O)c1cncc(-c2cnc(Nc3ccc(F)c(Cl)c3)nc2NCc2ccccn2)c1` [Example 95, 5-{2-(3-Chloro-4-fluoro-phenylamino)-4-[(pyridin-2-ylmethyl)-amino]-pyrimidin-5-yl}-nicotinic acid ethyl ester], the inhibition at 13 µM is -0.48%.
As for `CCS(=O)(=O)NC(=O)c1cc(-c2cnc(Nc3cc(C)cc(C)c3)nc2-n2nc(C(F)(F)F)cc2C)cnc1OC` [Example 823], the inhibition at 13 µM amounted to 100%.
As for `Fc1ccc(Nc2ncc(-c3cncnc3)c(-n3cnc(Cl)c3Cl)n2)cc1Cl` [Example 72, N-(3-chloro-4-fluorophenyl)-4-(4,5-dichloro-1H-imidazol-1-yl)-5,5′-bipyrimidin-2-amine], the inhibition at 13 µM stood at 52.6%.
`Cc1cc(C(F)(F)F)nn1-c1nc(Nc2ccc(F)c(Cl)c2)ncc1-c1cncc(C(=O)NCCN2CCOCC2)c1` [Example 932, 5-(2-(3-chloro-4-fluorophenylamino)-4-(5-methyl-3-(trifluoromethyl)-1H-pyrazol-1-yl)pyrimidin-5-yl)-N-(2-morpholinoethyl) nicotinamide]: the inhibition at 13 µM was found to be 100%.
As for `O=S1(=O)CCN(CCCNc2nc(Nc3ccc(F)c(Cl)c3)ncc2-c2cncnc2)CC1` [Example 48, N^2-(3-chloro-4-fluorophenyl)-N^4-[3-(1,1-dioxo-1,4-thiazinan-4-yl)propyl]-5-pyrimidin-5-ylpyrimidine-2,4-diamine], the inhibition at 13 µM was 79.8%.
As for `COc1ncc(-c2cnc(Nc3ccc(F)c(Cl)c3)nc2NCc2cnn(C)c2C)cn1` [Example 469, N2-(3-chloro-4-fluorophenyl)-N4-((1,5-dimethyl-1H-pyrazol-4-yl)methyl)-2′-methoxy-5,5′-bipyrimidine-2,4-diamine], the figure is 64%.
